Measured values published in patent US20130177991A1, “A[…] EMISSION LUMINOGEN-BASED URINARY PROTEIN DETECTION DEVICE FOR […] HEALTH” (NANO AND ADVANCED MATERIALS INSTITUTE LIMITED, priority 2012, published 2013).

What was measured:
HSA [1] = molecular target: T1, HSA (Homo sapiens, UniProt P02768); experiment: Fluorescence turn-on assay of HSA in PBS buffer; format: binding
T1 construct: purchased Sigma-Aldrich
Experimental: FIG. 2: (A) Fluorescent (FL) spectra of compound 1, SATPE in phosphate buffered saline (PBS) buffer containing different concentrations of HSA; (B) Change in the FL intensity at 475 nm with HSA concentration; Io=FL intensity in the absence of HSA. Inset: linear region of the binding isotherm of SATPE to HSA. [SATPE]=5 μM; λex=350 nm.
(§1) In another embodiment, Compound 1 is AIE-active as it emits faintly in PBS buffer but gives strong light upon aggregate formation. Its solution in PBS buffer is weakly luminescent at 390 nm in the absence of HSA (FIG. 2). […] The higher the HSA content, the stronger is the light emission. The detection limit can be squeezed to as low as 1 nM. In order to examine the feasibility of protein assay in body fluids, artificial urine is utilized as medium in the protein assay.

HSA [2] = molecular target: T1, HSA; experiment: Selectivity of fluorescence response to HSA against other proteins and DNAs; format: binding; conditions: FIG. 3B, [SATPE]=5 μM, [protein]=100 μg/mL
Experimental: FIG. 3: (A) Binding isotherm of HSA to SATPE in artificial urine and PBS buffer; (B) Dependence of the FL intensity of SATPE at 475 nm on different proteins in artificial urine and PBS buffer. [SATPE]=5 μM; [protein]=100 μg/mL; λex=350 nm.
as §1

T1 sequence (P02768 25-609): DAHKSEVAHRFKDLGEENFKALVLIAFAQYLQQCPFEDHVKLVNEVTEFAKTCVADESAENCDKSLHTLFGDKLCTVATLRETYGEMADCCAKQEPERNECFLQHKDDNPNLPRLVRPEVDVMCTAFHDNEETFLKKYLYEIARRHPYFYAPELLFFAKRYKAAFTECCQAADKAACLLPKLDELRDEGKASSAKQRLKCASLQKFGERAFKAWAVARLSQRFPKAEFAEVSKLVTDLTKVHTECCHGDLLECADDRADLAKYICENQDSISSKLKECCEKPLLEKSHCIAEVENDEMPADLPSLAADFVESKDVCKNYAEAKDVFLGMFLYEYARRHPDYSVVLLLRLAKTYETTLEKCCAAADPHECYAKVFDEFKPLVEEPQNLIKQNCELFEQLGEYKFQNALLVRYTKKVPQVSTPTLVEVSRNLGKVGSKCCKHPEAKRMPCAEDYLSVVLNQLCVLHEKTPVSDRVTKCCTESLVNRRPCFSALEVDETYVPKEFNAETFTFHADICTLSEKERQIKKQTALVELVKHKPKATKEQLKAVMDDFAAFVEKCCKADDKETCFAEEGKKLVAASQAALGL

Compound: O=S(=O)([O-])CCCOc1ccc(C(=C(c2ccccc2)c2ccc(OCCCS(=O)(=O)[O-])cc2)c2ccccc2)cc1.[Na+].[Na+] [Compound 1]
- detection limit for HSA (HSA [1]; emission at 475 nm): 1 nM
- light emission upon addition of HSA (HSA [1]; weakly luminescent at 390 nm in the absence of HSA): emit intensely at 475 nm
- response to other human proteins and DNAs (HSA [2]): no significant response
- selectivity to HSA (HSA [2]; artificial urine and PBS buffer): excellent selectivity to HSA
